The values that follow come from US11278555B2, “Combinational therapies for treatment of cancer comprising a bacteriochlorophyll derivative” (Yeda Research and Development Co. Ltd., priority 2016, dated 2022).

In test [1] the test system is CD8, Treg, Teff and TCM T cell populations. Nature of the test: Adaptive immune response (T cell populations) of mice bearing MB49 tumors. The format is in vivo. Here is the method:
• (i) Bacteriochlorophyll Derivatives—The Bchl derivatives and RGD-conjugates thereof were provided by Steba Biotech (Rehovot, Israel). […] Concentration was verified by spectrophotometric measurement. STL-7012 was provided as dipotassium salt. Working solution was prepared by dissolving STL-7012 K^+ salt in 5% mannitol solution (1 mg/ml). […] WST11 was supplied as a powder and kept in the dark at −20° C. Stock was prepared by dissolving WST11 in DDW containing 5% glucose and 0.67% mannitol, aliquoted and lyophilized. Working solution was reconstituted with DDW and the concentration of solution was confirmed spectrophotometrically. Alternatively, Clinical WST11 (batch: P00611, and 10-130611) was supplied as lyophilized formulation. Material was dissolved in 5% dextrose, aliquoted and stored at −20° C. At the day of treatment the aliquot was thawed, filtered and the concentration of solution was confirmed spectrophotometrically. • (ii) Chemotherapeutic drugs preparation and storage—Gemcitabine (GEM, Gemzar®, Lilly) was purchased from a local pharmacy as a powder, dissolved in saline to a concentration of 38 mg/ml, aliquoted and stored at −20° C. Aliquots were thawed, diluted with saline to a desired concentration and used on the same day at a dose of 75 mg/kg. Cyclophosphamide (CTX, Endoxan®, Baxter Oncology Gmbh, Germany) was purchased from a local pharmacy. A stock solution of 20 mg/ml was prepared by dissolving in 0.9% NaCl, aliquoted and stored at −20° C. […] Whole body imaging of luciferase-transfected tumors and metastases were recorded five minutes following 75 mg Kg^−1 intraperitoneal (i.p.) injection of D-luciferin with respective filter sets. • (vi) PDT treatment protocol: 4T1-Luc cells were grafted in the mammary pad of Balb/c mice. […]

The subject of test [2] is 4T1-luc tumors at the mammary pad. Nature of the test: WST11 VTP combined with CTX or Gemzar in mice bearing 4T1-luc tumors in the mammary pad (Scheme 5). The format is in vivo, Balb/C mice. The settings on record: VTP alone, 9 mg/kg WST11, 200 mW/cm^2 for 15 min. On the procedure: • (i) Bacteriochlorophyll Derivatives—The Bchl derivatives and RGD-conjugates thereof were provided by Steba Biotech (Rehovot, Israel). […] Concentration was verified by spectrophotometric measurement. STL-7012 was provided as dipotassium salt. Working solution was prepared by dissolving STL-7012 K^+ salt in 5% mannitol solution (1 mg/ml). […] WST11 was supplied as a powder and kept in the dark at −20° C. Stock was prepared by dissolving WST11 in DDW containing 5% glucose and 0.67% mannitol, aliquoted and lyophilized. Working solution was reconstituted with DDW and the concentration of solution was confirmed spectrophotometrically. Alternatively, Clinical WST11 (batch: P00611, and 10-130611) was supplied as lyophilized formulation. Material was dissolved in 5% dextrose, aliquoted and stored at −20° C. […] Whole body imaging of luciferase-transfected tumors and metastases were recorded five minutes following 75 mg Kg^−1 intraperitoneal (i.p.) injection of D-luciferin with respective filter sets. • (vi) PDT treatment protocol: 4T1-Luc cells were grafted in the mammary pad of Balb/c mice. […]

Test [3] relates to orthotopic 4T1-Luc tumors. Nature of the test: STL-6014 PDT and metronomic Gemzar in mice bearing 4T1-Luc tumors in the mammary pad (Scheme 1): primary tumor, survival, lung metastases, re-challenge. It is filed as in vivo, Balb/c mice. On the procedure: • (i) Bacteriochlorophyll Derivatives—The Bchl derivatives and RGD-conjugates thereof were provided by Steba Biotech (Rehovot, Israel). […] Concentration was verified by spectrophotometric measurement. STL-7012 was provided as dipotassium salt. Working solution was prepared by dissolving STL-7012 K^+ salt in 5% mannitol solution (1 mg/ml). […] WST11 was supplied as a powder and kept in the dark at −20° C. Stock was prepared by dissolving WST11 in DDW containing 5% glucose and 0.67% mannitol, aliquoted and lyophilized. Working solution was reconstituted with DDW and the concentration of solution was confirmed spectrophotometrically. Alternatively, Clinical WST11 (batch: P00611, and 10-130611) was supplied as lyophilized formulation. Material was dissolved in 5% dextrose, aliquoted and stored at −20° C. At the day of treatment the aliquot was thawed, filtered and the concentration of solution was confirmed spectrophotometrically. • (ii) Chemotherapeutic drugs preparation and storage—Gemcitabine (GEM, Gemzar®, Lilly) was purchased from a local pharmacy as a powder, dissolved in saline to a concentration of 38 mg/ml, aliquoted and stored at −20° C. Aliquots were thawed, diluted with saline to a desired concentration and used on the same day at a dose of 75 mg/kg. Cyclophosphamide (CTX, Endoxan®, Baxter Oncology Gmbh, Germany) was purchased from a local pharmacy. A stock solution of 20 mg/ml was prepared by dissolving in 0.9% NaCl, aliquoted and stored at −20° C. Aliquots were thawed, diluted with saline if needed to a desired concentration and used on the same day prepared at indicated doses. • (iii) Murine cell lines—Mammary luciferase (luc)-labeled 4T1 cell line (4T1-Luc) was a kind gift from Dr. Zvi Granot (Faculty of Medicine, The Hebrew University of Jerusalem, Israel); melanoma B16-F10 cell line was obtained from the American Type Culture Collection (ATCC, Manassas, Va.); bladder MB49 cell line was a kind gift from James Allison (MSKCC, New York, USA), and luc-labeled MB49-cell line was established using the murine stem cell virus (MSCV)-puromycin-luc-GFP construct (kindly provided by Dr. Emily Cheng, Human Oncology and Pathogenesis Program, MSKCC). 4T1 and MB49 cells were maintained in DMEM medium and B16-F10 cells in RPMI medium supplemented with 1 mmol/L sodium pyruvate, 10% fetal calf serum (FCS), 250 μg/ml hygromycin, 0.06 mg/ml penicillin and 0.1 mg/ml streptomycin. The cells were grown as monolayer at 37° C. in a humidified atmosphere (5% CO2, 95% air). • (iv) Murine tumor models—Female, Balb/c mice (6-8 week old) were grafted either subcutaneously (s.c.) into the right hind leg or orthotopically with 1×10^6 4T1 cells suspended in 50 or 1000 PBS. For the rechallenge study, 2×10^5 4T1 cells were orthotopically grafted. For bladder cancer model, 5×10^4 of MB49 or MB49-luciferase cell line were s.c. injected into the right flank of C57B/6 male mice (7-8 weeks old, Taconic, Hudson, N.Y.) 15 days prior to VTP treatment. For the efficacy study of VTP in immune compromised mice, the same number of MB49 cells was injected in the flank of Rag^−/− on C57B/6 background or C57B/6 male mice (7-8 week old, Jackson Laboratory, Bar Harbor, Me.). […] Whole body imaging of luciferase-transfected tumors and metastases were recorded five minutes following 75 mg Kg^−1 intraperitoneal (i.p.) injection of D-luciferin with respective filter sets. • (vi) PDT treatment protocol: 4T1-Luc cells were grafted in the mammary pad of Balb/c mice. […]

[4] abbreviates: 120 days follow up, monotherapy.

In the case of `CCC1c2cc3[n-]c(c(CC(=O)OC)c4nc(cc5[n-]c(cc(n2)C1C)c(C(C)=O)c5C)C(C)C4CCC(=O)[O-])c(C(=O)NCCS(=O)(=O)[O-])c3C.[K+].[K+].[Pd+2]` (stereo not shown) [WST11, Palladium 3^1-oxo-15-methoxycarbonylmethyl-rhodobacteriochlorin 13^1-(2-sulfoethyl) amide dipotassium salt], in test [1] (6 days post treatment), the “CD8 cell population in the spleen, blood and draining lymph nodes” value is “significant elevation”; the “Treg populations (spleen, blood, lymph nodes)” value was “no significant effect”. In test [1] (day 6 post VTP), the “CD8 Tcell/Treg ratio” value is “no increase”. Further, the survival entry in test [2] is “very limited survival”.

As to `Nc1ccn([C@@H]2O[C@H](CO)[C@@H](O)C2(F)F)c(=O)n1` [Gemzar, Gemcitabine], in test [3] (setting [4]), the “primary tumor cure” value is recorded as “no primary tumor cure” and the “survival compared to control (Kaplan-Meier)” value was “Extended mice survival”. The primary cure in test [3] (Gemzar only, 75 mg/kg i.p. metronomic) is listed as 0%.
